Reference: US20240158446A1, “CYCLIC COMPOUND HAVING SELECTIVE INHIBITORY ACTION ON KRAS OVER HRAS AND NRAS” (CHUGAI SEIYAKU KABUSHIKI KAISHA, priority 2021, published 2024)
Like-named read-outs stand apart in the source and are kept apart here. Where a SMILES comes first, the peptide text is derived from it. Bridges are numbered along the chain shown (N, C = ends). [ ]: non-standard residue; d: D form. The star is where a group is joined. hPhe(3,5-F2-4-CF3) = N[C@@H](CCc1cc(F)c(C(F)(F)F)c(F)c1)C(=O)O; NPrPhe(4-CF3) = CCCN[C@@H](Cc1ccc(C(F)(F)F)cc1)C(=O)O; NMeAbu(4,4,4-F3) = CN[C@@H](CC(F)(F)F)C(=O)O; NMeGly(cPent) = CN[C@H](C(=O)O)C1CCCC1; Nva(3-Et) = CCC(CC)[C@H](N)C(=O)O; NMeD = CN[C@@H](CC(=O)O)C(=O)O; NMeL = CN[C@@H](CC(C)C)C(=O)O; Iva = CC[C@](C)(N)C(=O)O; Morpholide = C1CN(*)CCO1; Ac5c = NC1(C(=O)O)CCCC1; Aze = O=C(O)[C@@H]1CCN1; Sar = CNCC(=O)O

Legend:
[1] = target: GDP-bound KRAS wild-type protein (Homo sapiens, UniProt P01116); assay: Binding to KRAS by surface plasmon resonance (SPR), Single Cycle Kinetics; details: GDP-bound KRAS wild-type protein, read-out: KRAS KD
Chain of GDP-bound KRAS wild-type protein (P01116 whole entry): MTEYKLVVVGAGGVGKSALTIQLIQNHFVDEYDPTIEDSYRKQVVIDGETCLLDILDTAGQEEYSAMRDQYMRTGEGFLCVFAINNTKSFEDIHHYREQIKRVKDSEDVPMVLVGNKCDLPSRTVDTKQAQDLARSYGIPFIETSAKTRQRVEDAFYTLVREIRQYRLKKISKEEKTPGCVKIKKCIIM

[2] = target: GDP-bound NRAS wild-type protein (Homo sapiens, UniProt P01111); assay: Binding to NRAS by surface plasmon resonance (SPR), Single Cycle Kinetics; details: SPR, GDP-bound NRAS wild-type protein vs GDP-bound KRAS wild-type protein
Chain of GDP-bound NRAS wild-type protein (P01111 whole entry): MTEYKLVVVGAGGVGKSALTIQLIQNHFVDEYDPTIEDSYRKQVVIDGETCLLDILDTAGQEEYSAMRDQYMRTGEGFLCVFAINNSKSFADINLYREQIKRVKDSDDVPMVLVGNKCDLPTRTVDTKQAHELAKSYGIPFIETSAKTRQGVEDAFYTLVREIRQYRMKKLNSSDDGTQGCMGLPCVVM

[3] = target: GDP-bound HRAS wild-type protein (Homo sapiens, UniProt P01112); assay: Binding to HRAS by surface plasmon resonance (SPR), Single Cycle Kinetics; details: SPR, GDP-bound HRAS wild-type protein vs GDP-bound KRAS wild-type protein
Chain of GDP-bound HRAS wild-type protein (P01112 whole entry): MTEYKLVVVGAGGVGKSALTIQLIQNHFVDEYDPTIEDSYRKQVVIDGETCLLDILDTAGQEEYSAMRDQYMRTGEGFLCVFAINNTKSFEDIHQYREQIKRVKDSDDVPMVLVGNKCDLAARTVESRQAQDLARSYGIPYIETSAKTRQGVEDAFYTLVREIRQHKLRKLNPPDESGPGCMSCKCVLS

[4] = SPR Single Cycle Kinetics, 1:1 binding model

Compound	Kd [1, 4] [nM]	NRAS/KRAS (ratio of KD value with respect to NRAS to KD value with respect to KRAS) [2]	HRAS/KRAS (ratio of KD value with respect to HRAS to KD value with respect to KRAS) [3]	Kd ([1]; SPR, Single Cycle Kinetics) [nM]	NRAS/KRAS (ratio of KD value for NRAS to KD value for KRAS) [2]	HRAS/KRAS (ratio of KD value for HRAS to KD value for KRAS) [3]
CCCN1C(=O)[C@@H]2CCN2C(=O)CN(C)C(=O)[C@H]([C@@H](C)CC)NC(=O)[C@H](CC(C)C)N(C)C(=O)C[C@@H](C(=O)N2CCOCC2)N(C)C(=O)[C@H](CC(F)(F)F)N(C)C(=O)C2(CCCC2)NC(=O)[C@@H]2CCCN2C(=O)[C@H](CCc2cc(F)c(C(F)(F)F)c(F)c2)NC(=O)CN(C)C(=O)[C@@H]1Cc1ccc(C(F)(F)F)cc1 [PP0803] ([NMeL]I[Sar][Aze][NPrPhe(4-CF3)][Sar][hPhe(3,5-F2-4-CF3)]P[Ac5c][NMeAbu(4,4,4-F3)][NMeD]-Morpholide; lactam N-11)	1.7	C (A compound having a KD ratio of 0.1 or more and less than 3 is denoted as C)	B (a compound having 3 or more and less than 10 is denoted as B)	–	–	–
CCCN1C(=O)[C@@H]2CCN2C(=O)CN(C)C(=O)[C@H](C(CC)CC)NC(=O)[C@H](CC(C)C)N(C)C(=O)C[C@@H](C(=O)N2CCOCC2)N(C)C(=O)[C@H](C2CCCC2)N(C)C(=O)C2(CCCC2)NC(=O)[C@@H]2CCCN2C(=O)[C@H](CCc2cc(F)c(C(F)(F)F)c(F)c2)NC(=O)CN(C)C(=O)[C@@H]1Cc1ccc(C(F)(F)F)cc1 [PP0804] ([NMeL][Nva(3-Et)][Sar][Aze][NPrPhe(4-CF3)][Sar][hPhe(3,5-F2-4-CF3)]P[Ac5c][NMeGly(cPent)][NMeD]-Morpholide; lactam N-11)	1.4	C (A compound having a KD ratio of 0.1 or more and less than 3 is denoted as C)	B (a compound having 3 or more and less than 10 is denoted as B)	–	–	–
CCCN1C(=O)CN(C)C(=O)CN(C)C(=O)[C@H]([C@@H](C)CC)NC(=O)[C@H](CC(C)C)N(C)C(=O)C[C@@H](C(=O)N(C)C)N(C)C(=O)[C@H](C2CCCC2)N(C)C(=O)[C@](C)(CC)NC(=O)[C@@H]2CCCN2C(=O)[C@H](CCc2cc(F)c(C(F)(F)F)c(F)c2)NC(=O)CN(C)C(=O)[C@@H]1Cc1ccc(C(F)(F)F)cc1 [PP0805] ([NMeL]I[Sar][Sar][NPrPhe(4-CF3)][Sar][hPhe(3,5-F2-4-CF3)]P[Iva][NMeGly(cPent)][NMeD]-NMe2; lactam N-11)	0.16	B (a compound having 3 or more and less than 10 is denoted as B)	C (A compound having a KD ratio of 0.1 or more and less than 3 is denoted as C)	–	–	–
CCO[C@@H]1C[C@H]2C(=O)NC3(CCC3)C(=O)N(C)[C@@H](C3CCCC3)C(=O)N(C)[C@H](C(=O)N3CCOCC3)CC(=O)N(C)[C@@H](CC(C)C)C(=O)N[C@@H](C3CC(F)(F)C3)C(=O)N(C)CC(=O)N(C)[C@H]3CCCCN(C3=O)[C@@H](Cc3ccc(C(F)(F)F)cc3)C(=O)N(C)CC(=O)N[C@@H](CCc3cc(F)c(C(F)(F)F)c(F)c3)C(=O)N2C1 [PP0807]	0.059	B (a compound having 3 or more and less than 10 is denoted as B)	B (a compound having 3 or more and less than 10 is denoted as B)	–	–	–
CC[C@H](C)[C@@H]1NC(=O)[C@H](CC(C)C)N(C)C(=O)C[C@@H](C(=O)N2CCOCC2)N(C)C(=O)[C@H](C2CCCC2)N(C)C(=O)C2(CCC2)NC(=O)[C@]2(C)CCCN2C(=O)[C@H](CCc2cc(F)c(C(F)(F)F)c(F)c2)NC(=O)CN(C)C(=O)[C@H](Cc2ccc(C(F)(F)F)cc2)N2CCCC[C@@H](C2=O)N(C)C(=O)CN(C)C1=O [PP0808]	0.027	B (a compound having 3 or more and less than 10 is denoted as B)	B (a compound having 3 or more and less than 10 is denoted as B)	–	–	–
CC[C@H](C)[C@@H]1NC(=O)[C@H](CC(C)C)N(C)C(=O)C[C@@H](C(=O)N2CCOCC2)N(C)C(=O)[C@H](C2CCCC2)N(C)C(=O)C2(CCC2)NC(=O)[C@@H]2C[C@@H](C(F)(F)F)CN2C(=O)[C@H](CCc2cc(F)c(C(F)(F)F)c(F)c2)NC(=O)CN(C)C(=O)[C@H](Cc2ccc(C(F)(F)F)cc2)N2CCCC[C@@H](C2=O)N(C)C(=O)CN(C)C1=O [PP0809]	0.027	B (a compound having 3 or more and less than 10 is denoted as B)	B (a compound having 3 or more and less than 10 is denoted as B)	–	–	–
CC[C@H](C)[C@@H]1NC(=O)[C@H](CC(C)C)N(C)C(=O)C[C@@H](C(=O)N2CCOCC2)N(C)C(=O)[C@H](C2CCCC2)N(C)C(=O)C2(CCC2)NC(=O)[C@@H]2[C@H]3C[C@H]3CN2C(=O)[C@H](CCc2cc(F)c(C(F)(F)F)c(F)c2)NC(=O)CN(C)C(=O)[C@H](Cc2ccc(C(F)(F)F)cc2)N2CCCC[C@@H](C2=O)N(C)C(=O)CN(C)C1=O [PP0810]	–	–	–	0.04	B (a compound having 3 or more and less than 10 is denoted as B)	B (a compound having 3 or more and less than 10 is denoted as B)
CCO[C@@H]1C[C@H]2C(=O)NC3(CCC3)C(=O)N(C)[C@@H](C(CC)CC)C(=O)N(C)[C@H](C(=O)N3CCOCC3)CC(=O)N(C)[C@@H](CC(C)C)C(=O)N[C@@H]([C@@H](C)CC)C(=O)N(C)CC(=O)N(C)[C@H]3CCCCN(C3=O)[C@@H](Cc3ccc(C(F)(F)F)cc3)C(=O)N(C)CC(=O)N[C@@H](CCc3cc(F)c(C(F)(F)F)c(F)c3)C(=O)N2C1 [PP0811]	–	–	–	0.083	B (a compound having 3 or more and less than 10 is denoted as B)	B (a compound having 3 or more and less than 10 is denoted as B)
CCO[C@@H]1C[C@H]2C(=O)NC3(CCC3)C(=O)N(C)[C@@H](CC(F)F)C(=O)N(C)[C@H](C(=O)N3CCOCC3)CC(=O)N(C)[C@@H](CC(C)C)C(=O)N[C@@H]([C@@H](C)CC)C(=O)N(C)CC(=O)N(C)[C@H]3CCCCN(C3=O)[C@@H](Cc3ccc(C(F)(F)F)cc3)C(=O)N(C)CC(=O)N[C@@H](CCc3cc(F)c(C(F)(F)F)c(F)c3)C(=O)N2C1 [PP0813]	–	–	–	0.4	C (A compound having a KD ratio of 0.1 or more and less than 3 is denoted as C)	B (a compound having 3 or more and less than 10 is denoted as B)
CCO[C@@H]1C[C@H]2C(=O)NC3(CCC3)C(=O)N(C)[C@@H](C(C)(C)C)C(=O)N(C)[C@H](C(=O)N3CCOCC3)CC(=O)N(C)[C@@H](CC(C)C)C(=O)N[C@@H]([C@@H](C)CC)C(=O)N(C)CC(=O)N(C)[C@H]3CCCCN(C3=O)[C@@H](Cc3ccc(C(F)(F)F)cc3)C(=O)N(C)CC(=O)N[C@@H](CCc3cc(F)c(C(F)(F)F)c(F)c3)C(=O)N2C1 [PP0814]	–	–	–	0.039	B (a compound having 3 or more and less than 10 is denoted as B)	B (a compound having 3 or more and less than 10 is denoted as B)
CC[C@H](C)[C@@H]1NC(=O)[C@H](CC(C)C)N(C)C(=O)C[C@@H](C(=O)N2CCOCC2)N(C)C(=O)[C@H](C2CCCC2)N(C)C(=O)C2(CCC2)NC(=O)[C@@H]2C[C@@H](C(F)(F)F)CN2C(=O)[C@H](CCc2cc(F)c(C(F)(F)F)c(F)c2)NC(=O)CN(C)C(=O)[C@H](Cc2ccc(C(F)(F)F)cc2)N2CCCCC[C@@H](C2=O)N(C)C(=O)CN(C)C1=O [PP0818]	–	–	–	1.7	B (a compound having 3 or more and less than 10 is denoted as B)	B (a compound having 3 or more and less than 10 is denoted as B)
CCO[C@@H]1C[C@H]2C(=O)NC3(CCC3)C(=O)N(C)[C@@H](CC(F)F)C(=O)N(C)[C@H](C(=O)N3CCOCC3)CC(=O)N(C)[C@@H](CC(C)C)C(=O)N[C@@H]([C@@H](C)CC)C(=O)N(C)CC(=O)N(C)[C@H]3CCCCCN(C3=O)[C@@H](Cc3ccc(C(F)(F)F)cc3)C(=O)N(C)CC(=O)N[C@@H](CCc3cc(F)c(C(F)(F)F)c(F)c3)C(=O)N2C1 [PP0822]	–	–	–	5.7	B (a compound having 3 or more and less than 10 is denoted as B)	B (a compound having 3 or more and less than 10 is denoted as B)
CCO[C@@H]1C[C@H]2C(=O)NC3(CCC3)C(=O)N(C)[C@@H](C(C)(C)C)C(=O)N(C)[C@H](C(=O)N3CCOCC3)CC(=O)N(C)[C@@H](CC(C)C)C(=O)N[C@@H]([C@@H](C)CC)C(=O)N(C)CC(=O)N(C)[C@H]3CCCCCN(C3=O)[C@@H](Cc3ccc(C(F)(F)F)cc3)C(=O)N(C)CC(=O)N[C@@H](CCc3cc(F)c(C(F)(F)F)c(F)c3)C(=O)N2C1 [PP0823]	–	–	–	0.82	A (a compound having 10 or more and less than 20 is denoted as A)	B (a compound having 3 or more and less than 10 is denoted as B)
